In patent US11541006B2, “Aqueous formulation for insoluble drugs” (priority 2018, dated 2023):
≈ marks a conversion by molar mass, not a printed value.

Legend:
[1] = Voriconazole solubility in LMBW versus binary/ternary mixtures of L, M, B and alcohol (Example 2); assay type: physicochemical; conditions: thermodynamic from solid
Method: For this study, voriconazole was used as the insoluble drug.
To determine solubility in each combination, voriconazole was added to each combination and mixed until it no longer would dissolve. For each mixture, the pH was adjusted to pH 4.5-5, equilibrated at room temperature, and then passed through a 0.2-micron filter. The filtrate was analyzed by HPLC for voriconazole concentration. Each HPLC-determined voriconazole concentration is noted as a “Voriconazole solubility” in the tables below.

[2] = Voriconazole stability versus pH and predicted F96 shelf life T90 (separate study); assay type: physicochemical
[3] = Solubility of insoluble drugs in F96 LMBW vehicle (Example 4); assay type: physicochemical; conditions: aqueous with cosolvent or surfactant or cyclodextrin, thermodynamic from solid
Source text: Twenty-two (22) insoluble drugs having a wide variety of chemical structures (including chemical element, small molecule, peptide and protein), properties and biological activities (including drugs, diagnostic agents and nutritional supplement agents) were selected and tested for solubility in F96 LMBW vehicle as follows: • 1. Measure out a fixed amount of F96 vehicle. • 2. Add a known amount of an insoluble drug substance. • 3. Mix to dissolve the drug substance. • 4. […] Record the maximum amount of the insoluble drug substance that the F96 LMBW vehicle could dissolve and use this value to calculate the drug's solubility in the F96 LMBW vehicle.

[4] = physchem; conditions: for Appearance of the undiluted solutions / Appearance of the solutions after being diluted in an IV infusion fluid: RT, 24 hours; for Appearance of the solutions after being diluted in an IV infusion fluid: diluted to about 0.5 to 5 mg/mL
Method: Different amounts of voriconazole (20 to 60 mg/mL) were first dissolved in F145V and subsequently diluted in an IV infusion fluid, such as normal saline (NS), 5% dextrose in water (D5W), water for injection (WFI), or Lactated Ringers solution, to a final voriconazole concentration of about 0.5 to 5 mg/mL.

[5] = cited from earlier work
[6] = Solubility of insoluble drugs in 16% SBECD aqueous solution (Example 27); conditions: 16% SBECD aqueous solution, aqueous with cosolvent or surfactant or cyclodextrin, thermodynamic from solid
Source text: Add a known amount of an insoluble drug substance. • 3. Mix to dissolve the drug substance. • 4.

For C[C@@H](c1ncncc1F)[C@](O)(Cn1cncn1)c1ccc(F)cc1F [Voriconazole], the solubility ([1]; LMBW (lecithin, MCT, bile acid, alcohols in water), pH 4.5, aqueous with cosolvent or surfactant or cyclodextrin) was 29400 µg/mL, the solubility ([1]; MCT and alcohols in water), aqueous with cosolvent or surfactant or cyclodextrin, vehicle % wt in water: glycocholic acid 10.6, MCT 15, benzyl alcohol 4.5, ethanol 6.5, emulsion, opaque, pH 4.5-5, RT) was 8000 µg/mL and the solubility ([1]; MCT and alcohols in water), aqueous with cosolvent or surfactant or cyclodextrin, vehicle % wt in water: lecithin 25, MCT 15, benzyl alcohol 4.5, ethanol 6.5, emulsion, opaque, pH 4.5-5, RT) was 19800 µg/mL. It also gave a solubility ([1]; alcohol solution (benzyl alcohol and ethanol in water), pH 4.5, aqueous with cosolvent or surfactant or cyclodextrin) of 1100 µg/mL, a solubility ([1]; aqueous with cosolvent or surfactant or cyclodextrin, vehicle % wt in water: MCT 15, emulsion, opaque, pH 4.5-5, RT) of 500 µg/mL and a solubility ([1]; aqueous with cosolvent or surfactant or cyclodextrin, vehicle % wt in water: glycocholic acid 10.6, micelle solution, hazy, pH 4.5-5, RT) of 2100 µg/mL. For the same compound, the solubility ([1]; aqueous with cosolvent or surfactant or cyclodextrin, vehicle % wt in water: lecithin 25, glycocholic acid 10.6, benzyl alcohol 4.5, ethanol 6.5, micelle solution, hazy, pH 4.5-5, RT) was 8000 µg/mL, the solubility ([1]; aqueous with cosolvent or surfactant or cyclodextrin, vehicle % wt in water: lecithin 25, liposome, hazy, pH 4.5-5, RT) was 800 µg/mL and the solubility ([1]; emulsion (MCT and alcohols in water), aqueous with cosolvent or surfactant or cyclodextrin, vehicle % wt in water: MCT 15, benzyl alcohol 4.5, ethanol 6.5, emulsion, opaque, pH 4.5-5, RT) was 19400 µg/mL. For the same compound, the solubility ([1]; emulsion (glycocholic acid and MCT in water), aqueous with cosolvent or surfactant or cyclodextrin, vehicle % wt in water: glycocholic acid 10.6, MCT 15, emulsion, opaque, pH 4.5-5, RT) was 3100 µg/mL, the solubility ([1]; emulsion (lecithin and MCT in water), aqueous with cosolvent or surfactant or cyclodextrin, vehicle % wt in water: lecithin 25, MCT 15, emulsion, opaque, pH 4.5-5, RT) was 1400 µg/mL and the solubility ([1]; liposome (lecithin and alcohols in water), aqueous with cosolvent or surfactant or cyclodextrin, vehicle % wt in water: lecithin 25, benzyl alcohol 4.5, ethanol 6.5, liposome, hazy, pH 4.5-5, RT) was 13700 µg/mL. For the same compound, the solubility ([1]; micelle solution (glycocholic acid and alcohols in water), aqueous with cosolvent or surfactant or cyclodextrin, vehicle % wt in water: glycocholic acid 10.6, benzyl alcohol 4.5, ethanol 6.5, micelle solution, hazy, pH 4.5-5, RT) was 7600 µg/mL, the solubility ([1]; micelle solution (lecithin and glycocholic acid in water), aqueous with cosolvent or surfactant or cyclodextrin, vehicle % wt in water: lecithin 25, glycocholic acid 10.6, micelle solution, hazy, pH 4.5-5, RT) was 7100 µg/mL and the “pH at which most stable in an aqueous solution” value [2] was ~4. The solubility [3] was 20000 µg/mL (≈ 57.3 mM), the “Solubility increase over water” value [4] was 86 folds and the “Appearance of the undiluted solutions” value ([4]; 20 mg/mL added to F145V) was “Clear & one-phase solution”. For the same compound, the “Appearance of the solutions after being diluted in an IV infusion fluid” value (“Appearance of the solutions” for short) ([4]; 20 mg/mL in F145V) was “Clear & one-phase solution”, the “Appearance of the undiluted solutions” value ([4]; 30 mg/mL added to F145V) was “Clear & one-phase solution” and the “Appearance of the solutions” value ([4]; 30 mg/mL in F145V) was “Clear & one-phase solution”. For the same compound, the “Appearance of the undiluted solutions” value ([4]; 40 mg/mL added to F145V) was “Clear & one-phase solution”, the “Appearance of the solutions” value ([4]; 40 mg/mL in F145V) was “Slight precipitation” and the “Appearance of the undiluted solutions” value ([4]; 50 mg/mL added to F145V) was “Clear & one-phase solution”. For the same compound, the “Appearance of the solutions” value ([4]; 50 mg/mL in F145V) was “Major precipitation”, the “Appearance of the undiluted solutions” value ([4]; 60 mg/mL added to F145V) was “Clear & one-phase solution” and the “Appearance of the solutions” value ([4]; 60 mg/mL in F145V) was “Major precipitation”. The solubility at 24 h ([4]; aqueous with cosolvent or surfactant or cyclodextrin) was ≥ 60000 µg/mL, the “Solubility according to USP definition” value ([5]; in water) was “Insoluble” and the Solubility in water ([5]; water, 25° C.) was “about 0.7 mg/mL”. For the same compound, the “Reported solubility in water” value ([5]; water) was 700 µg/mL and the solubility [6] was 8600 µg/mL (≈ 24.6 mM).
